Data on 3 compounds can be found in patent publication US20080124741A1, “Canine Cholecystokinin 1 Receptor Materials And Their Use” (priority 2004, published 2008).

pKi: −log10 of the molar value. Like-named read-outs stand apart in the source and are kept apart here.

The target of assay [1] is T1, Canine CCK1: Variant #1 (Canis lupus familiaris, UniProt Q5D0K2, G258S/L413V/V400A).
T1 construct: plasmid DNAs containing the respective variant canine CCK1 receptor cDNAs and the wild type cDNA were transiently transfected; expressed in transfected cells; host or cells: HEK-293 cells, transient
T1 sequence (Q5D0K2 1-428 G258S/V400A/L413V): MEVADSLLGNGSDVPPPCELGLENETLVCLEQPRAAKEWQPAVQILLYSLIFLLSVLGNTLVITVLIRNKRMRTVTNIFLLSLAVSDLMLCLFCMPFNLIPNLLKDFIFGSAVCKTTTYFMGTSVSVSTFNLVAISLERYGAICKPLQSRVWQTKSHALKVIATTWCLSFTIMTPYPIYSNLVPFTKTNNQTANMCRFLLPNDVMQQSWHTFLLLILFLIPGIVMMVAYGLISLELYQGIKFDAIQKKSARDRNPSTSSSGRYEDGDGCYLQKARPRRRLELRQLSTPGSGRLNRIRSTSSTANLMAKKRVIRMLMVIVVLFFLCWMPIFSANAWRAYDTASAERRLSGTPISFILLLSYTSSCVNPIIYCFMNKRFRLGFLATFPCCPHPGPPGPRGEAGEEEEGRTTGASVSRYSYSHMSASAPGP
Description: competition binding at variant #1 canine CCK1 receptor transiently transfected in HEK cells. Conditions: Canine CCK1 variant #1, transiently transfected in HEK cells, n = 3, ± s.e. mean; for Ki: read-out: pKI (affinity value, -log equilibrium dissociation constant) (converted).
Description: (§1) For radioligand binding studies, the cells were harvested by cell scraping and resulting pellets immediately frozen at −80° C. (approximately 50×10^6 cells/pellet). Frozen cell pellets were defrosted on ice in 15 ml of assay buffer (composition; 10 mM HEPES, 130 mM NaCl, 4.7 mM KCl, 5 mM MgCl2, bacitracin 0.089; pH 7.2 at 21±3° C.) and then homogenized (setting 10, 7×3 s; Polytron; Brinkmann Instruments). The homogenate was centrifuged (800×g for 10 min) and the pellet discarded. The supernatant was re-centrifuged (39,800×g for 25 min) and the final pellet re-suspended in 20 ml assay buffer (cell concentration: 25×10^5 cells ml^−1). Protein concentration was determined using BCA Protein Assay Kit (Pierce, Rockford, Ill.). All binding assays were conducted in 96 well Multiscreen GF/B filter plates (Millipore, Billerica, Mass., USA) that were pre-soaked in assay buffer for 1 h. […] The bound radioactivity was separated by filtration using a Multiscreen Resist manifold (Millipore, Billericay, Mass., USA). The filters were washed three times with ice-cold PBS (pH 7.5) and radioactivity retained on the filters was measured by liquid scintillation counting using a TopCount (Packard BioScience, Boston, Mass.). All experiments were performed in triplicate.
(§2) Equilibrium dissociation constant (K1) values were assumed to be equal to the IC50 values obtained from the logistic curve fit as the radiolabel concentrations used in the assays were always below the KD of the radiolabel. The equilibrium dissociation constants (K1) values were calculated from the midpoint locations (IC50) following Cheng & Prusoff, eqn.
(§3) In order to investigate these variants, plasmid DNAs containing the respective variant canine CCK1 receptor cDNAs and the wild type cDNA were transiently transfected into HEK-293 cells using Lipofectamine 200 transfection reagent and Opti-MEM medium (Invitrogen). Cells were harvested at 48-72 hours after transfection and the pellets were frozen at −80° C. The cells were then harvested, assayed, and the data analyzed as described above.

Assay [2] has as its target T2, canine CCK1 receptor (Canis lupus familiaris, UniProt Q5D0K2).
T2 construct: expressed in transfected cells
T2 sequence (Q5D0K2 1-428): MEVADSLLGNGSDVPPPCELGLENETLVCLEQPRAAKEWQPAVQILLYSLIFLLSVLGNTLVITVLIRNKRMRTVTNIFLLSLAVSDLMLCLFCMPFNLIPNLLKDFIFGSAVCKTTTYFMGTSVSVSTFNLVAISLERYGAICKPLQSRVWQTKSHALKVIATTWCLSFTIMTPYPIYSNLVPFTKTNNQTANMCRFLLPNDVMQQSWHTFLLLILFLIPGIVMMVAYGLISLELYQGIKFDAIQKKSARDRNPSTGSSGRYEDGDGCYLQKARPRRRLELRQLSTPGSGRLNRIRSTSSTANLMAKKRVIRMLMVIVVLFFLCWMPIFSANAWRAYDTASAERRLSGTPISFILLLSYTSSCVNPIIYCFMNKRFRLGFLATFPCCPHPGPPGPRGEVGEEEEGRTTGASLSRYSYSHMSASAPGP
The experiment in a line: competition binding of [125I]-BH-CCK-8S at cloned canine CCK1 receptor stably expressed in CHO-K cells.
Description: The plasmids described above were used for stable transfection into CHO-K cells (Chinese Hamster Ovary) (American Type Culture Collection, Rockville, Md.) using the Effectene transfection method (Qiagen, Chatsworth, Calif.) with 2 μg plasmid for each 100 mm^2 culture dish. These cells were maintained in Ham's F12 selection medium with 10% fetal bovine serum, 2 mM L-glutamine, penicillin (50 U ml^−1), streptomycin (50 mg ml^−1) and Geneticin (0.7 mg ml^−1) (Invitrogen) at 37° C. in a humidified incubator under an atmosphere containing 5% CO2. Media was changed every other day. Isolated Geneticin resistant colonies were picked from the 100 mm^2 dishes and grown to confluence in 6 well cluster dishes. 24 individual stable clones were used in a Fluorometric Imaging Plate Reader (FLIPR) assay with CCK-8S (0.01 nM-1 μM) to select a clone with a good signal-to-noise window for use in further experiments.
(§4) For radioligand binding studies, the cells were harvested by cell scraping and resulting pellets immediately frozen at −80° C. (approximately 50×10^6 cells/pellet). Frozen cell pellets were defrosted on ice in 15 ml of assay buffer (composition; 10 mM HEPES, 130 mM NaCl, 4.7 mM KCl, 5 mM MgCl2, bacitracin 0.089; pH 7.2 at 21±3° C.) and then homogenized (setting 10, 7×3 s; Polytron; Brinkmann Instruments). The homogenate was centrifuged (800×g for 10 min) and the pellet discarded. The supernatant was re-centrifuged (39,800×g for 25 min) and the final pellet re-suspended in 20 ml assay buffer (cell concentration: 25×10^5 cells ml^−1). Protein concentration was determined using BCA Protein Assay Kit (Pierce, Rockford, Ill.). All binding assays were conducted in 96 well Multiscreen GF/B filter plates (Millipore, Billerica, Mass., USA) that were pre-soaked in assay buffer for 1 h. […] Nonspecific binding was determined by inclusion of 10 μM 2-NAP (a CCK1 receptor selective antagonist; see, e.g., Hull et al., 1993, Br. J. Pharmacol., 108:734-740). All radioligand binding studies were conducted in the presence of the CCK2 receptor-selective antagonist PD-134,308 at a concentration estimated to occupy 99% of human CCK2 receptors (0.3 μM; se, e.g., Hughes et al., 1990, Proc. Natl. Acad. Sci. U.S.A., 87(17):6728-6732; Hunter et al., 1993, Mol. Pharmacol., 43:595-602). The bound radioactivity was separated by filtration using a Multiscreen Resist manifold (Millipore, Billericay, Mass., USA). The filters were washed three times with ice-cold PBS (pH 7.5) and radioactivity retained on the filters was measured by liquid scintillation counting using a TopCount (Packard BioScience, Boston, Mass.). All experiments were performed in triplicate.
as §2
(§5) Competition-inhibition studies were conducted on the canine and human CCK1 receptor using a cell-protein concentration within the linear range of the cell number curve (80 μg/ml, cell number curves not shown).

Assay [3] addresses T3, human CCK1 receptor (Homo sapiens, UniProt P32238).
T3 construct: expressed in transfected cells
T3 sequence (P32238 1-428): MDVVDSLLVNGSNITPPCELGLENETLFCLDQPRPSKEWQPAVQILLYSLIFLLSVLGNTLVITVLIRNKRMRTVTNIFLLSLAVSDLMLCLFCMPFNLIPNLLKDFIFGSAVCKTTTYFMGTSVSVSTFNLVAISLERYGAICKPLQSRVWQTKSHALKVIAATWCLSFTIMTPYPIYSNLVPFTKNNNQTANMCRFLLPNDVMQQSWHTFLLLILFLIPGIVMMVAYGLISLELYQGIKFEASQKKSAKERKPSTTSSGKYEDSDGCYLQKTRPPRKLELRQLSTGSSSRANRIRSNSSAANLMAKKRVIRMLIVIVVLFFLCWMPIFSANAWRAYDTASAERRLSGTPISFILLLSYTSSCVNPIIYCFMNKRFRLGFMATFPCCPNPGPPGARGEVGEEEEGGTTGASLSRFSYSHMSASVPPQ
The experiment in a line: competition binding of [125I]-BH-CCK-8S at cloned human CCK1 receptor.
Description: as §4, §2, §5

Assay [4] addresses T4, canine CCK2 receptor (Canis lupus familiaris, UniProt P30552).
T4 sequence (P30552 1-453): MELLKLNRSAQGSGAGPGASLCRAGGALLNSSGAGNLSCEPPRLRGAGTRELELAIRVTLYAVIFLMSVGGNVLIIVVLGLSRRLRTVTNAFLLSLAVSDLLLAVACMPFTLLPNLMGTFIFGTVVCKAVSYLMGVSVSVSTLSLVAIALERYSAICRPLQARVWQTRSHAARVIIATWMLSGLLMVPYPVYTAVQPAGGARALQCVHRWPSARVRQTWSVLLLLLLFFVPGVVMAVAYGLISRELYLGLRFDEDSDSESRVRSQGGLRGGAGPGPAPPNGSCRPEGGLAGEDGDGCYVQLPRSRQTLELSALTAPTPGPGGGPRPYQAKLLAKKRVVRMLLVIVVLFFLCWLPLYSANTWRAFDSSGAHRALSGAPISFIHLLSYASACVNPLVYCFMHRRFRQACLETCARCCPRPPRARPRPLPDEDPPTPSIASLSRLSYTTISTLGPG
The experiment in a line: competition binding of [125I]-BH-CCK-8S at canine CCK2 receptor. Conditions: for nH (Hill slope) / Ki: Canine CCK2, [125I]-BH-CCK-8S radiolabel, n = 3, ± s.e. mean; for fold higher affinity at the canine CCK2 receptor compared to the canine CCK1 receptor: canine CCK2 over canine CCK1; for Ki: read-out: pKI (affinity value, -log equilibrium dissociation constant) (converted).

In assay [5] the target is T5, Canine CCK1: Wild-type (Canis lupus familiaris, UniProt Q5D0K2).
T5 construct: The ORF encodes a 428 amino-acid protein; expressed in transfected cells; host or cells: HEK-293 cells, transient
T5 sequence (Q5D0K2 1-428): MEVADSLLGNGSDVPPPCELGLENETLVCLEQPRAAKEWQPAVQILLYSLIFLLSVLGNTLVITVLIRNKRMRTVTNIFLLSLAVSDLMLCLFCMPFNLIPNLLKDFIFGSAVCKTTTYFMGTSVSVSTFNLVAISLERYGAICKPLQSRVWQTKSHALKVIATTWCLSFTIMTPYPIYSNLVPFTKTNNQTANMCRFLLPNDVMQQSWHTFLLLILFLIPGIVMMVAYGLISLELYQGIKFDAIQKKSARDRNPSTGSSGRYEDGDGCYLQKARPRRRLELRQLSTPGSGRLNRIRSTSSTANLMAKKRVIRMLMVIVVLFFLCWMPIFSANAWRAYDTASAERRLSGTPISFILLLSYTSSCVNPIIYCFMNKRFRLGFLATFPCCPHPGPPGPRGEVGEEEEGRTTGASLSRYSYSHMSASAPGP
The experiment in a line: competition binding at wild-type canine CCK1 receptor transiently transfected in HEK cells. The settings on record: n = 3, ± s.e. mean; for Ki: read-out: pKI (affinity value, -log equilibrium dissociation constant) (converted).
Description: as §1, §2, §3

Assay [6] has as its target T6, guinea-pig pancreatic CCK1 receptors (Cavia porcellus, UniProt Q63931).
T6 construct: host or cells: guinea-pig pancreas
T6 sequence (Q63931 1-430): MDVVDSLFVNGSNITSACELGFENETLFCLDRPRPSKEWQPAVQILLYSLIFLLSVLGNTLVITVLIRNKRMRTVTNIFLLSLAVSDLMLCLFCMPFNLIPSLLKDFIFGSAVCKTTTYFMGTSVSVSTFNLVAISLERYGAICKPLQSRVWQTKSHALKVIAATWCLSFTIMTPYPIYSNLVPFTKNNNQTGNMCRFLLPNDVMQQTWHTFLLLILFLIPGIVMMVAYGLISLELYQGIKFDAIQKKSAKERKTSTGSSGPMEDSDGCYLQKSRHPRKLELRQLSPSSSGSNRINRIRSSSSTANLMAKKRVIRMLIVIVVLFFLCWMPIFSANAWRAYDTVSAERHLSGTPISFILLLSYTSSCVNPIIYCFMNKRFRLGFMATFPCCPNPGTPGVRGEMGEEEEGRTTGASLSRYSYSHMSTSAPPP
The settings on record: guinea-pig pancreatic CCK1 receptors (Takinami et al., 1997); cited from earlier work.

Setting [7] is: Canine CCK1, CHO-K cells, [125I]-BH-CCK-8S radiolabel, n = 3, ± s.e. mean.
[8] abbreviates: Human CCK1, [125I]-BH-CCK-8S radiolabel, n = 3, ± s.e. mean.

In the case of `Cc1cccc(NC(=O)N[C@@H]2N=C(c3ccccc3)c3ccccc3N(C)C2=O)c1` [L-365,260, 3R(+)—N-(2,3-dihydro-1-methyl-2-oxo-5-phenyl-1H-1,4-benzodiazepin-3-yl)-N′-(3-methylphenyl)urea], the “nH (Hill slope)” value turned out to be 1.08 ± 0.33 in assay [1]; 1.17 ± 0.09 in assay [2] (setting [7]); 1.32 ± 0.14 in assay [3] (setting [8]); 0.95 ± 0.08 in assay [4]; 0.96 ± 0.32 in assay [5]. The Ki in assay [1] was 155 nM; in assay [5], 219 nM. In addition, the pKi in assay [2] is 6.61; in assay [3] it was 6.61; in assay [4] it was 7.03. For the same compound, the “fold higher affinity at the canine CCK2 receptor compared to the canine CCK1 receptor” value in assay [4] is recorded as ~2.6 fold.

`CN1C(=O)[C@@H](NC(=O)c2cc3ccccc3[nH]2)N=C(c2ccccc2)c2ccccc21` [L-364,718]: in assay [4], the “nH (Hill slope)” value worked out at 0.87 ± 0.06 and the Ki was 24 nM.

On to `CNc1cccc(NC(=O)N[C@@H]2N=C(c3ccccn3)c3ccccc3N(CC(=O)C(C)(C)C)C2=O)c1` [YF476], for which the “nH (Hill slope)” value in assay [1] stood at 1.14 ± 0.37; in assay [2] (setting [7]), 0.88 ± 0.08; in assay [3] (setting [8]), 0.95 ± 0.07; in assay [4], 0.91 ± 0.10; in assay [5], 0.60 ± 0.22. Further, the Ki was 15.1 nM in assay [1]; 12.3 nM in assay [2] (Canine CCK1, CHO-K cells, [125I]-BH-CCK-8S radiolabel, n = 3, ± s.e. mean, read-out: pKI (affinity value, -log equilibrium dissociation constant) (converted)); 13.5 nM in assay [3] (Human CCK1, [125I]-BH-CCK-8S radiolabel, n = 3, ± s.e. mean, read-out: pKI (affinity value, -log equilibrium dissociation constant) (converted)); 1.05 nM in assay [4]; 12 nM in assay [5]. The “reported pK1 value” in assay [6] is ~6.5. Further, in assay [4], the “fold higher affinity at the canine CCK2 receptor compared to the canine CCK1 receptor” value is ~12 fold.

In general, pKi refers to the negative decadic logarithm of the Ki, by convention in mol/L.
